In patent publication US6399629B1, “Efflux pump inhibitors” (priority 1998, dated 2002):

Test system: Pseudomonas aeruginosa PAM1001
Test: checkerboard assay (broth microdilution): levofloxacin MIC in presence of efflux pump inhibitor
Assay type: cell-based
Summary of the method: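 Reduction of levofloxacin MIC by an efflux pump inhibitor measured against Pseudomonas aeruginosa PAM1001. Each microdilution well held a unique combination of levofloxacin and inhibitor (max 40 μg/mL) in MHB, inoculum 5×10^5 CFU/mL. Readout after 20 h, 35° C: OD650 plus visual inspection.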

Row | Compound | Levofloxacin MIC Against P. aerugiuosa PAM1001 in Presence of Efflux Pump Inhibitor (EPI), Minimum Inhibitory Concentration (EPI Conc. 0 μg/mL) [µg/mL] | Levofloxacin MIC Against P. aerugiuosa PAM1001 in Presence of Efflux Pump Inhibitor (EPI), Minimum Inhibitory Concentration (EPI Conc. 0.625 μg/mL) [µg/mL] | Levofloxacin MIC Against P. aerugiuosa PAM1001 in Presence of Efflux Pump Inhibitor (EPI), Minimum Inhibitory Concentration (EPI Conc. 1.25 μg/mL) [µg/mL] | Levofloxacin MIC Against P. aerugiuosa PAM1001 in Presence of Efflux Pump Inhibitor (EPI), Minimum Inhibitory Concentration (EPI Conc. 2.5 μg/mL) [µg/mL] | Levofloxacin MIC Against P. aerugiuosa PAM1001 in Presence of Efflux Pump Inhibitor (EPI), Minimum Inhibitory Concentration (EPI Conc. 5 μg/ mL) [µg/mL] | Levofloxacin MIC Against P. aerugiuosa PAM1001 in Presence of Efflux Pump Inhibitor (EPI), Minimum Inhibitory Concentration (EPI Conc. 10 μg/mL) [µg/mL] | Levofloxacin MIC Against P. aerugiuosa PAM1001 in Presence of Efflux Pump Inhibitor (EPI), Minimum Inhibitory Concentration (EPI Conc. 20 μg/mL) [µg/mL] | Levofloxacin MIC Against P. aerugiuosa PAM1001 in Presence of Efflux Pump Inhibitor (EPI), Minimum Inhibitory Concentration (EPI Conc. 40 μg/mL) [µg/mL]
1 | N[C@H]1CN[C@H](C(=O)N[C@H](CCc2ccccc2)C(=O)Nc2cnc3ccccc3c2)C1 [Compound M7] | 4 | 4 | 4 | 4 | 4 | 4 | 4 | 0.06
2 | Cc1cc2nc(C(O)[C@@H](CCc3ccccc3)NC(=O)[C@@H]3C[C@@H](NC(=O)CN)CN3)oc2cc1C (mixture of isomers) [Compound M64, (2S,4R)-4-(2-Aminoacetamido)-N-[(1R)-1-[(RS)-(5,6-dimethyl-2-benzoxazoly)hydroxymethyl]-3-pheylpropyl]-2-pyrrolidinecarboxamide] | 4 | 4 | 4 | 4 | 4 | 4 | 4 | 0.015
3 | NCC(=O)N[C@@H]1CN[C@@H](C(=O)N[C@H](CCc2ccccc2)C(=O)NCCCc2ccccc2)C1 [Compound M2] | 4 | 4 | 4 | 4 | 2 | 2 | 0.25 | 0.125
4 | CN(C(=O)[C@@H]1C[C@@H](NC(=O)CN)CN1)[C@H](CCc1ccccc1)C(=O)Nc1cnc2ccccc2c1 [Compound M15, (2S,4R)-4-(2-Aminoacetamido)-N-methyl-N-[(1R)-3-phenyl-1-(3-quinolylcarbamoyl)propyl]-2-pyrrolidiecarboxamide] | 4 | 4 | 4 | 4 | 4 | 1 | 0.06 | 0.015
5 | NCC(=O)N[C@H]1CN[C@H](C(=O)N[C@H](CCc2ccccc2)CSc2ccc3ccccc3n2)C1 [Compound M55, (2S,4R)-4-(2-Aminoacetamido)-N-[(1R)-3-phenyl-1-[(2-quinolythio)methyl]propyl]-2-pyrrolidinecarobxamide] | 4 | 4 | 4 | 4 | 4 | 2 | 1 | 0.06
